Assay results from US10238713B2, “Cyclic tetrapeptides and therapeutic applications thereof” (LODZ UNIVERSITY OF TECHNOLOGY, priority 2010, dated 2019).
Non-standard residues stand in square brackets, D forms with d. Residues, ends and D or L forms follow the SMILES beside them. *: point of attachment. Bip = N[C@@H](Cc1ccc(-c2ccccc2)cc1)C(=O)O; β3hW = N[C@H](CC(=O)O)Cc1c[nH]c2ccccc12; Phe(4-F) = N[C@@H](Cc1ccc(F)cc1)C(=O)O; hPhe = N[C@@H](CCc1ccccc1)C(=O)O; β3hF = N[C@H](CC(=O)O)Cc1ccccc1; tBu = CC(C)(C)*

Assays:
[1] = tested on: splenocytes; assay: Toxicity test on splenocytes (24 h, MTT); format: cell-based, mouse; settings: 100 μg/ml (printed 100 μg/m for I-C)
Procedure: Cell survival was determined by MTT colorimetric method. The results were presented as mean optical density (OD) at 550 nm from 4 wells. The viability of cells in respective compound concentrations was compared to appropriate DMSO control groups (100% survival), corresponding to respective compound concentrations.

[2] = tested on: concanavalin A-induced mouse splenocyte proliferation; assay: Proliferative response of splenocytes to concanavalin A (MTT); format: cell-based
Procedure: Spleens were pressed against a plastic screen into 0.83% NH4Cl solution to lyse erythrocytes (5 min incubation at room temperature). The cells were then washed twice with Hanks' medium, passed through glass wool column to remove debris, and re-suspended in the culture medium, referred to below as the “culture medium”, consisting of RPMI-1640, supplemented with 10% of fetal calf serum, L-glutamine, sodium pyruvate, 2-mercaptoethanol, streptomycin and penicillin (100 μg/ml). The cells were then distributed into 96-well flat-bottom tissue culture plates (Nunc) at a density of 2×10^5 cells/100 μl/well. Con A (2.5 μg/ml) was added to induce cell proliferation. The compounds were added to the cultures at doses of 1-100 μg/ml. After a three-day incubation, cell proliferation was determined using the colorimetric MTT method (Hansen M B, J Immunol Methods, 1989, 119, 203-210). The results were presented as the mean optical density (OD) at 550 nm ±SE from quadriplicate determinations (wells).

[3] = tested on: mice, carrageenan air pouch; assay: Carrageenan air-pouch test (exudate cell number); format: in vivo, mouse; settings: peptides 100 μg i.p. one hour before carrageenan, 24 h; FIGS. 18A-18B
Procedure: (§1) In this and the air-pouch test, 1.5 mg peptide was dissolved in 300 μl of DMSO, then in 0.9% NaCl to achieve the desired dose (250 μg/0.2 ml or 100 μg/0.2 ml). Carrageenan (Sigma) was dissolved in 0.9% aqueous NaCl (overnight). 50 μl of 2% carrageenan solution was injected intradermally into hind foot pads. The peptides were given in a single 250 μg dose (0.2 ml) per mouse intraperitoneally (i.p.), 30 min before carrageenan administration. Dexamethasone (DEX) (Dexaven, Polfa, Poland), a reference drug, was given i.p. in dose 25 μg per mouse. Control mice were administered i.p. appropriately diluted solvent (DMSO in aqueous NaCl) instead of peptides. The foot pads of “background” (BG) mice were injected with 50 μl of 0.9% aqueous NaCl. Foot pad edema was measured with a spring caliper, 2 h, 3 h and 4 h after administration of carrageenan. The results are presented in FIGS. 17A, 17B and 17C as mean values of the antigen-specific increase of the foot pad thickness measured in 5 mice in each experimental group and expressed in mm ±SE (only results from measurements 4 h following administration of carrageenan are presented in figures). Statistics: FIG. 17A: Control vs: DEX P=0.0001; 4B8M P=0.0001; P25 NS (P=1.0000); P28 NS (P=1.0000); P31 NS (P=0.0528); P35 P=0.0008 (ANOVA of Kruskal-Wallis); FIG. 17B: Statistics: Control vs: P22 NS (P=1.0000); P26 NS (P=1.0000); P27 P=0.0050; P30 P=0.0004; P33-b NS (P=1.0000); SP00-b P=0.0001; P00S-b NS (P=1.0000) (ANOVA of Kruskal-Wallis); FIG. 17C: Statistics: Control vs: P21 P=0.0147; P23-2 P=0.0083; P24 P=0.0001; P29 NS (P=0.9999); P32 P=0.0001; P33 NS (P=0.6806); P34 NS (P=0.1920) (ANOVA).
Air pouches were formed by subdermal injection into the dorsal region (in a halothane anesthesia) of 5 cm^3 of air (needle 23G x 11/4, 5 ml syringe). On day 3 the air pouches were given an additional 2 ml of air and an inflammatory process was elicited by an intra-pouch injection of 1% of carrageenan in 0.5 ml of 0.9% aqueous NaCl. The peptides were given i.p. at a dose of 100 μg one hour before carrageenan injection into the air pouch. The mice from the “background” (BG) group were given 0.9% aqueous NaCl i.p. and 0.9% aqueous NaCl into the air pouches. Control mice were given appropriately diluted DMSO i.p. and carrageenan into the air pouches. 24 h after carrageenan injection, the mice were sacrificed by cervical dislocation, the air pouches were supplemented with 1 ml of 0.9% aqueous NaCl and the exudates from the air pouches were aspirated using a syringe. The exudates were diluted with 0.9% aqueous NaCl and the cells were counted in a Bürker hemocytometer. Data are presented in FIGS. 18A and 18B as the mean values from 10 mice/group (cell number×10^6 per mouse) ±SE. Then the cells were centrifuged and 0.1 ml of the supernatant was saved for TNF-α determination (see Determination of TNF-α activity, above). The cell pellets were used to perform smears on microscopic glasses, which were stained with Giemsa and May-Grünwald reagents for evaluation of mast cell degranulation. Cell analysis was performed by a histologist using a light microscope and 1000× magnification. The content of intact and degranulated mast cells is given in percentage (mean values from 10 mice/group) ±SE. Statistics: FIG. 18A: BG vs Control P=0.0000; Control vs: DEX P=0.0034; 4B8M P=0.0005; P22 NS (P=0.7275); P26 P=0.0032; P27 NS (P=0.0659); P35 NS (P=1.0000) (ANOVA of Kruskal-Wallis); FIG. 18B: Control vs: P21 NS (P=0.322); P23-2 P=0.0020; P24 P=0.0001; P25 P=0.0418; P28 NS (P=0.3502); P29 NS (P=0.0582); P30 P=0.0006; P31 P=0.0078; P32 P=0.0340; P33 NS (P=0.9993); P34 NS (p=0.0566) (ANOVA).

[4] = tested on: mice, carrageenan-induced foot pad edema; assay: Carrageenan-induced foot-pad edema test; format: in vivo, mouse; settings: 4 h after carrageenan; peptides 250 μg i.p., DEX 25 μg i.p., 30 min before; FIGS. 17A-17C
Procedure: as §1

[5] = tested on: PHA-induced proliferation of human peripheral blood mononuclear cells (PBMC); assay: Proliferative response of PBMC to PHA (MTT); format: cell-based; settings: four-day incubation, FIGS. 9A-9F
[6] = Solubility in the aqueous culture medium; format: physicochemical
Procedure: RPMI-1640 medium (Cibi/Life Technologies, UK), fetal calf serum (FCS, Gibco), DMSO, phytohemagglutinin A (PHA), lipopolysaccharide (LPS) from E. coli strain O111:B4 (Sigma), […]-2,5-diphenyltetrazolium bromide (MTT), SDS and DMF (Sigma). The culture medium consisted of RPMI-1640, 10% addition of FCS, L-glutamine, sodium pyruvate, 2-mercaptoetanol and antibiotics (streptomycin and penicillin). Cyclic tetrapeptides were initially dissolved in DMSO (5 mg/ml), the dissolved in the culture medium to the desired concentration.
The effects of the peptides on PMBC survival in 24h culture are presented in FIGS. 8A, 8B, 8C, 8D, 8E and 8F. Peptide 4B8M (compound I-A) was included as a reference compound. Appropriate dilutions of DMSO were added to control cultures. […] In the figures, P01=compound I-D, P02=compound I-E, P03=compound I-F, P04=compound I-G, P05=compound I-H, P06=compound I-J, P07=compound I-K, P08=compound I-L, P10a=compound I-M, P10b=compound I-N, P11=compound I-O, P21=compound I-R, P-21b=compound I-Q, P22=compound I-S, P23-2=compound I-U, P24=compound I-V, P25=compound I-X, P25-i=compound I-W, P26=compound I-Y, P27=compound I-Z, P28=compound I-AA, P29=compound I-AB, P30=compound I-AC, P31=compound I-AD, P32=compound I-AE, P33=compound I-AG, P33-b=compound I-AF, P34=compound I-AH, P35=compound I-AI, P00S-b=compound I-AJ, SP00-b=compound I-AL.

[7] = tested on: human PBMC; assay: Toxicity test: PBMC survival in 24 h culture (MTT); settings: ANOVA, FIGS. 8A-8F (4B8M repeated per figure)
Procedure: PBMC were isolated by centrifugation on Ficoll-uropoline gradient (density 1.077 g/ml) (Lymphoprep; PAA Laboratories), at 800×g for 20 min at 4° C. The interphase cells, consisting of lymphocytes (20%) and monocytes (80%) were then washed three times with Hanks' medium and re-suspended in the culture medium at density of 2×10^6 cells/ml.
Appropriate dilutions of DMSO in RPMI 1640 medium were used as controls. Cell survival was determined by the MTT colorimetric method (Hansen et al., J. Immunol. Methods, 1989, pp. 203-210). The data are presented as a mean OD value from quadriplicate wells ±standard error (SE). The cultures “Control (−)” contained only cells in the culture medium.
The assay was performed per Hansen et al., J. Immunol. […] Briefly, 25 μl of MTT (5 mg/ml) stock solution was added per well at the end of cell incubation and the plates were incubated for 3 h in a cell culture incubator. Then, 100 μl of the extraction buffer (20% SDS with 50% DMF, pH 4.7) was added. After additional overnight incubation, the optical density was measured at 550 nm (Dynatech 5000).

[8] = tested on: mouse splenocyte cultures, humoral immune response to SRBC; assay: Secondary humoral immune response in vitro to SRBC (AFC number); format: cell-based
Procedure: Mice were sensitized intraperitoneally with 0.2 ml of 5% (v/v) SRBC suspension. After four days spleens from these mice were isolated and single cell suspensions prepared by homogenization in PBS solution. After washing the cells in PBS by centrifugation, the cells were re-suspended in the culture medium at a density of 5×10^6 cells/ml. The cells were subsequently distributed to 24-well culture plates in 1 ml aliquots and 0.05 ml of 0.005% SRBC was added as the antigen to each well. The compounds were added to the cultures at the beginning of the four-day incubation period at concentration ranges of 1-100 μg/ml. The number of antibody-forming cells (AFC) in the cultures was determined using a method of local hemolysis in agar gel according to Mishell et al., J Exp Med, 1967, 126, 423-442.

SMILES	toxicity to splenocytes [1] [%]	effect on concanavalin A-induced splenocyte proliferation ([2]; 100 μg/ml)	effect on concanavalin A-induced splenocyte proliferation ([2]; lower concentrations (below 100 μg/ml))	air pouch exudate cell number, P vs Control [3]	foot pad edema (increase of foot pad thickness), P vs Control [4]	PHA-induced PBMC proliferation, P vs DMSO at appropriate dilution ([5]; 10 μg/ml)	PHA-induced PBMC proliferation, P vs DMSO at appropriate dilution ([5]; 100 μg/ml)	solubility in the aqueous culture medium [6]	PBMC survival, P vs DMSO at appropriate dilution ([7]; 10 μg/ml)	PBMC survival, P vs DMSO at appropriate dilution ([7]; 100 μg/ml)	suppression of in vitro humoral immune response to SRBC ([8]; 10 μg/m as printed) [%]	suppression of in vitro humoral immune response to SRBC ([8]; 100 μg/m as printed) [%]	effect on concanavalin A-induced mouse splenocyte proliferation ([2]; 50-100 μg/ml)
O=C1N[C@@H](Cc2ccccc2)CC(=O)N2CCC[C@H]2C(=O)N2CCC[C@H]2C(=O)N[C@H]1Cc1ccccc1 [I-B] (cyclo(F[β3hF]PP))	30	weak antiproliferative effect	no such effect was observed										
O=C1C[C@H](Cc2c[nH]c3ccccc23)NC(=O)[C@@H]2CCCN2C(=O)[C@@H]2CCCN2C(=O)[C@H](Cc2ccccc2)N1 [I-AE] (cyclo(FPP[β3hW]))				0.0340	0.0001	0.0127	0.0023	incomplete solubility	0.9954	0.9984			
O=C1C[C@H](Cc2ccccc2)NC(=O)[C@@H]2CCCN2C(=O)[C@@H]2CCCN2C(=O)[C@H](Cc2ccc(F)cc2)N1 [I-X] (cyclo(PP[β3hF][Phe(4-F)]))				0.0418	1.0000		1.0000	incomplete solubility	0.8597	0.0001			
O=C1C[C@H](Cc2ccccc2)NC(=O)[C@@H]2CCCN2C(=O)[C@@H]2CCCN2C(=O)[C@H](Cc2ccc(-c3ccccc3)cc2)N1 [I-AH] (cyclo([Bip]PP[β3hF]))				0.0566	0.1920		0.001861	incomplete solubility	0.0005	0.0001			
CC(C)(C)OC[C@@H]1NC(=O)[C@@H]2CCCN2C(=O)[C@H](Cc2ccccc2)NC(=O)C[C@H](Cc2ccccc2)NC1=O [I-AJ] (cyclo(FPS(tBu)[β3hF]))					1.0000	1.0000	0.7035	incomplete solubility	0.9962	0.9250			
O=C1C[C@H](Cc2ccccc2)NC(=O)[C@@H]2CCCN2C(=O)[C@@H]2CCCN2C(=O)C[C@H](Cc2ccccc2)N1 [I-C] (cyclo(PP[β3hF][β3hF]))	70										33	80	strong inhibitory effect
O=C1C[C@H](Cc2ccccc2)NC(=O)[C@@H]2CCCN2C(=O)[C@@H]2CCCN2C(=O)[C@H](CCc2ccccc2)N1 [I-AI] (cyclo(PP[β3hF][hPhe]))				1.0000	0.0008		1.0000	incomplete solubility	0.0222	1.0000			
